Reference: patent US6509325B1, “Method for inhibiting melanogenesis and uses thereof” (priority 2000, dated 2003)

Assays:
[1] = test system: Cryptococcus neoformans serotype D strain 24067; assay: Glyphosate inhibition of C. neoformans growth (turbidity, 96-well plates); assay type: cell-based; conditions: after 72 h of incubation, 30° C., Sab, visual turbidity
Procedure: Cryptococcus neoformans serotype D strain 24067 was obtained from the American Type Culture Collection (Rockville, Md.), and grown overnight at 30° C. with shaking in Sabouraud dextrose media (Sab) obtained from Difco Laboratories (Detroit, Mich.). Cells were collected and washed three times with phosphate-buffered saline (PBS: 0.137 M NaCl and 0.003 M sodium phosphate; pH 7.4). A suspension of 250 organisms per 1 ml of Sab was made. Glyphosate was obtained from the Sigma Chemical Co. (St. Louis, Mo.). […] Each concentration was tested in triplicate. The plates were incubated at 30° C., and growth was assayed visually for turbidity after 72 h.

[2] = test system: melanization in C. neoformans; assay: Effect of sub-inhibitory glyphosate on melanization of C. neoformans cultures with L-dopa; assay type: cell-based, Cryptococcus neoformans; conditions: 1 mM L-dopa; for Melanization: control without glyphosate day 7
Procedure: Positive melanin controls were cultures containing L-dopa without glyphosate; negative controls were cultures lacking both L-dopa and glyphosate. All cultures were grown in duplicate. The cultures were examined visually for melanization. The growth rate of the cells in each culture was determined by counting, with a hemocytometer, the number of cells per ml at various times after the initiation of the culture.

[3] = test system: autopolymerization of L-dopa to melanin; assay: Autopolymerization of L-dopa to melanin (spectrophotometry)
Procedure: In solution, L-dopa slowly autopolymerizes to form melanin [20]. […] The samples were left on the benchtop at room temperature. An Ultraspec 2000 spectrophotometer (Pharmacia Biotech, Cambridge, England) was used to assess absorption at 270λ after 3 days and 20 days. […] A freshly-prepared solution of the same concentrations was tested for comparison.

[4] = test system: C. neoformans strain 24067; assay: Survival of BALB/c mice infected with C. neoformans; assay type: in vivo; conditions: for survival advantage: oral
Procedure: (§1) Cryptococcus neoformans cells were collected as described above. BALB/c mice (National Cancer Institute (NCI), Bethesda, Md.), 6-8 weeks old, were injected intravenously (i.v.) by the tail veins with 1×10^6 organisms. […] In experiment A, uninfected control mice were injected with glyphosate at the same time intervals. […] Forty-four days after infection, the A/J Cr mice were killed, and the lungs were isolated and homogenized in 5 ml of PBS. 100 μl of 1/100 and 1/1000 dilutions of the homogenates in PBS were then plated on Sab agar. Colony-forming units (CFUs) were determined after incubation of the plates at 30° C. for 48 h (1 colony=1 CFU). […] Control mice were injected with PBS instead of glyphosate.
Data analysis was performed using SPSS version 8. Student's T-test and Kaplan-Meier survival analysis were utilized.

C. neoformans = assay: Lung CFUs in A/J Cr mice infected with C. neoformans; assay type: in vivo; conditions: 1 mg glyphosate i.p. at 24, 48, 72 h, 44 days after infection, n=13, controls 9.63±0.21, p=0.004
Procedure: as §1

O=C(O)CNCP(=O)(O)O [glyphosate, N-phosphonomethylglycine]
concentrations of glyphosate at which growth inhibition was observed [1]: > 250 µg/mL | concentrations of glyphosate at which no growth inhibition was observed [1]: < 250 µg/mL | Melanization ([2]; 62.5 μg/ml glyphosate): 10 days | Melanization ([2]; 125 μg/ml glyphosate): 13 days | Melanization ([2]; 250 μg/ml glyphosate): 15 days | melanization state of culture ([2]; grown 10 days in minimal media, 62.5 μg/ml glyphosate): heavily melanized | absorption value ([3]; 0.12 μg/ml glyphosate, 1 mM L-dopa, day 3, 270λ, control without compound 0.425): 0.359 | concentration of glyphosate at which an absorption signal could be detected ([3]; day 3, 1 mM L-dopa, room temperature, 270λ): 39 µg/mL | concentrations of glyphosate that continued to inhibit melanin formation ([3]; day 20, 1 mM L-dopa, room temperature): ≥ 31.3 µg/mL | Mean survival ([4]; 0.75 mg/day glyphosate i.p. protocol, control 20.4±1.31 days, p=0.049): 26.8 ± 3.55 days | Mean survival time and standard deviation by Kaplan-Meier analysis ([4]; 1.5 mg/day glyphosate i.p. for three days, control 15.9±1.57 days, p=0.001): 25.7 ± 2.36 days | survival advantage ([4]; ad lib water containing 2 mg/ml glyphosate): no survival advantage | survival advantage ([4]; ad lib water containing 10 mg/ml glyphosate): no survival advantage | Log10 CFUs from lung homogenates (C. neoformans): 8.62±1.12
